Counter-ions that a name gives are not always drawn.
Each compound was assayed against GCN2 (Homo sapiens, UniProt Q9P2K8) (assay: GCN2 enzyme assay (TR-FRET Lanthascreen, GFP-eIF2alpha phosphorylation)). Conditions: 10 μM ATP, 80 nM GFP-eIF2a substrate, 30 nM GCN2, room temperature.
Chain of GCN2 (Q9P2K8 whole entry, species assumed): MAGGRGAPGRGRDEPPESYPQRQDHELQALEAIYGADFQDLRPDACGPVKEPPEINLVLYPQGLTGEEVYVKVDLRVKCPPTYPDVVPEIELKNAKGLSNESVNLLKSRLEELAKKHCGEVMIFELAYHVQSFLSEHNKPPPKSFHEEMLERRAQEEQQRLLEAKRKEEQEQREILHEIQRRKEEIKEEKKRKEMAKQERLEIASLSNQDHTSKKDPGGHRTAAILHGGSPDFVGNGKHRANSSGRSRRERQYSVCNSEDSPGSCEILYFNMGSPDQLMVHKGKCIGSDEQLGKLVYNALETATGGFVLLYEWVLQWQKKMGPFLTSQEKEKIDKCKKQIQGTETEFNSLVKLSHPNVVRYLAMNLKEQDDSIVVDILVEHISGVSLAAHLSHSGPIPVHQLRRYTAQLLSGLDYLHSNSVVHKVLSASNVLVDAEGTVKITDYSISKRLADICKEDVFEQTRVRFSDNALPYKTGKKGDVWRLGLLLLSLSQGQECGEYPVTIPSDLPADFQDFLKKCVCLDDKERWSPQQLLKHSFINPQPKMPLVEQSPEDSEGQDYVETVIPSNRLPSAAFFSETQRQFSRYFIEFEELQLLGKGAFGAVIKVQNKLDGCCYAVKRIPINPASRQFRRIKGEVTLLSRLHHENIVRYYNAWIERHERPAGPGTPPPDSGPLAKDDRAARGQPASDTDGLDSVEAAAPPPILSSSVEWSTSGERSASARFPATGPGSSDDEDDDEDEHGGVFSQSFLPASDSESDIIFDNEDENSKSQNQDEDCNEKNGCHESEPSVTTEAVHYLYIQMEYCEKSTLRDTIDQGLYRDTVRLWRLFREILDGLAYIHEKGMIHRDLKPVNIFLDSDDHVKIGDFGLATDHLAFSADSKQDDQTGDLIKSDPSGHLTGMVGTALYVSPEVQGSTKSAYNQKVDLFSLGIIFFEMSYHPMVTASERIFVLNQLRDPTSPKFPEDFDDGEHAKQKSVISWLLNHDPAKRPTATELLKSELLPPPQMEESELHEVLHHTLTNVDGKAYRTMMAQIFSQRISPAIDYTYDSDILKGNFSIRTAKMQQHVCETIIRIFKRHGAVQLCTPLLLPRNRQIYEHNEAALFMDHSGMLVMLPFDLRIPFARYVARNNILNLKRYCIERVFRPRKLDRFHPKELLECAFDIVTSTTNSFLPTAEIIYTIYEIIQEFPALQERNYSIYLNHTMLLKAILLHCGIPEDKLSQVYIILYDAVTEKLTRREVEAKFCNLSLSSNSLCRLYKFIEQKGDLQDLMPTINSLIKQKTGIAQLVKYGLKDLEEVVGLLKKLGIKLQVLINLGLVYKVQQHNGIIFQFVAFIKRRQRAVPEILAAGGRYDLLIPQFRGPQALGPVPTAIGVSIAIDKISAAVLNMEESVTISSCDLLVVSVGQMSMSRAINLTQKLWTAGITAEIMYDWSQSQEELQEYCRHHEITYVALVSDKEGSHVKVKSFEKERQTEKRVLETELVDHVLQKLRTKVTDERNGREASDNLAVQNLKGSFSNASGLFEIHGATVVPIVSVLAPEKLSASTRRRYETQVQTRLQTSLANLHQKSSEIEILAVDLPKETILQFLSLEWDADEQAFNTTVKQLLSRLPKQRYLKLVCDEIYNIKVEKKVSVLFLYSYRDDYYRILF
Format: biochemical
From the text: GCN2: Assay Principle & Conditions
This assay can quantificate the activity of the serin kinase GCN2 (general control non-derepressible-2).
This kinase is involved in the stress metabolism of cells. It is activated upon starvation (amino acid depletion). Its natural substrate is eIF2a (eukaryotic initiation factor 2 alpha subunit), a translation factor, which gets activated (phosphorylated) by GCN2 in case of an amino acid bottleneck in the cells. This in turn leads to a halt of the protein synthesis. Inhibition of GCN2 results in stopping this mechanism: The cell can not stop protein production upon “starvation” stress.
The assay is run in two steps: the enzymatic reaction and the detection step. In the first step GCN2 is incubated with 10 μM ATP and 80 nM of the GFP-labelled substrate elF2alpha at room temperature.
The enzymatic reaction is stopped by addition of EDTA. The amount of phosphorylated elF2alpha is determined by TR-FRET (Lanthascreen): A complex is formed consisting of antibody and GFP labelled phospho-eIF2a, which allows a FRET upon exitation at 340 nm.
Final Concentrations in the Enzymatic Reaction
For `O[C@H]1CC[C@H](Nc2ncc3ncn(-c4ccc(I)c(F)c4)c3n2)C1` (relative stereo) [Compound A27, (trans)-3-[9-(3-fluoro-4-iodo-phenyl)-9H-purin-2-ylamino]-cyclopentanol], the IC50 was 5 to 10 µM. `COCCn1cc(-c2ccc(-n3cnc4cnc(N[C@H]5CC[C@H](O)C5)nc43)cc2F)cn1` (relative stereo) [Compound A29, (trans)-3-(9-{3-fluoro-4-[1-(2-methoxy-ethyl)-1H-pyrazol-4-yl]-phenyl}-9H-purin-2-ylamino)-cyclopentanol] was tested, and the IC50 was 1 to 5 µM. Work on `Cn1cc(-c2ccc(-n3cnc4cnc(N[C@@H]5CC[C@@H](O)C5)nc43)cc2)cn1` (relative stereo) [Compound A30, (trans)-3-{9-[4-(1-Methyl-1H-pyrazol-4-yl)-phenyl]-9H-purin-2-ylamino}-cyclopentanol] yielded an IC50 of 1 to 5 µM. `CCOc1ccc(-n2cnc3cnc(Nc4cnn(C5CCN(C)CC5)c4)nc32)cc1` [Compound A1, 9-(4-ethoxyphenyl)-N-(1-(1-methylpiperidin-4-yl)-1H-pyrazol-4-yl)-9H-purin-2-amine] showed an IC50 of less than 1 µM. Work on `COCCOc1ccc(-n2cnc3cnc(Nc4cnn(C5CCN(C)CC5)c4)nc32)cc1` [Compound A2, 9-(4-(2-methoxyethoxy)phenyl)-N-(1-(1-methylpiperidin-4-yl)-1H-pyrazol-4-yl)-9H-purin-2-amine] yielded an IC50 of less than 1 µM. Work on `NC(=O)c1ccc(-n2cnc3cnc(Nc4cnn(C5CCOCC5)c4)nc32)cc1` [Compound A3, 4-(2-((1-(tetrahydro-2H-pyran-4-yl)-1H-pyrazol-4-yl)amino)-9H-purin-9-yl)benzamide] yielded an IC50 of less than 1 µM. Compound `CCn1cc(Nc2ncc3ncn(-c4cnn(CC)c4)c3n2)cn1` [Compound A4, N,9-bis-(1-ethyl-1H-pyrazol-4-yl)-9H-purin-2-amine] has an IC50 of less than 1 µM. Work on `CCn1cc(-n2cnc3cnc(Nc4cnn(C5CCOCC5)c4)nc32)cn1` [Compound A5, 9-(1-ethyl-1H-pyrazol-4-yl)-N-(1-(tetrahydro-2H-pyran-4-yl)-1H-pyrazol-4-yl)-9H-purin-2-amine] yielded an IC50 of less than 1 µM. `CCOc1ccc(-n2c(C)nc3cnc(Nc4cnn(C5CCN(C)CC5)c4)nc32)cc1` [Compound A6, 9-(4-ethoxyphenyl)-8-methyl-N-(1-(1-methylpiperidin-4-yl)-1H-pyrazol-4-yl)-9H-purin-2-amine] was tested, and the IC50 was 1 to 5 µM. Compound `CCn1cc(Nc2ncc3ncn(-c4ccc5c(c4)NC(=O)C5(C)C)c3n2)cn1` [Compound A9, 6-(2-((1-ethyl-1H-pyrazol-4-yl)amino)-9H-purin-9-yl)-3,3-dimethylindolin-2-one] has an IC50 of less than 1 µM. `CCOc1ccc(-n2cnc3cnc(Nc4cnn(CCn5cccn5)c4)nc32)cc1` [Compound A10, N-(1-(2-(1H-pyrazol-1-yl)ethyl)-1H-pyrazol-4-yl)-9-(4-ethoxyphenyl)-9H-purin-2-amine] was tested, and the IC50 was less than 1 µM. For `CCOc1ccc(-n2cnc3cnc(Nc4cnn(CCCC5CCNCC5)c4)nc32)cc1` [Compound A11, 9-(4-ethoxyphenyl)-N-(1-(3-(piperidin-4-yl)propyl)-1H-pyrazol-4-yl)-9H-purin-2-amine hydrochloride], the IC50 was less than 1 µM. Work on `Fc1cc(-n2cnc3cnc(Nc4cnn(C5CCOCC5)c4)nc32)ccc1Cl` [Compound A12, 9-(4-chloro-3-fluorophenyl)-N-(1-(tetrahydro-2H-pyran-4-yl)-1H-pyrazol-4-yl)-9H-purine-2-amine] yielded an IC50 of less than 1 µM. For `COCCN1CCC(n2cc(Nc3ncc4ncn(-c5ccc(OC)cc5)c4n3)cn2)CC1` [Compound A13, N-(1-(1-(2-methoxyethyl)piperidin-4-yl)-1H-pyrazol-4-yl)-9-(4-methoxyphenyl)-9H-purin-2-amine], the IC50 was less than 1 µM. With `COc1ccc(-n2cnc3cnc(Nc4cnn(C5CCN(C)CC5)c4)nc32)cc1` [Compound A16, 9-(4-methoxyphenyl)-N-(1-(1-methylpiperidin-4-yl)-1H-pyrazol-4-yl)-9H-purin-2-amine] the IC50 was less than 1 µM. `CCOc1ccc(-n2cnc3cnc(Nc4cnn(C5CCC(N)CC5)c4)nc32)cc1` (stereo not shown) [Compound A17, N-(1-(4-aminocyclohexyl)-1H-pyrazol-4-yl)-9-(4-ethoxyphenyl)-9H-purin-2-amine hydrochloride] was tested, and the IC50 was less than 1 µM. `COc1ccc(-n2cnc3cnc(Nc4cn[nH]c4)nc32)cc1` [Compound A18, [9-(4-methoxy-phenyl)-9H-purin-2-yl]-(1H-pyrazol-4-yl)-amine] was tested, and the IC50 was less than 1 µM. For `COc1ccc(-n2cnc3cnc(Nc4ccn(C)n4)nc32)cc1` [Compound A19, [9-(4-methoxy-phenyl)-9H-purin-2-yl]-(1-methyl-1H-pyrazol-3-yl)-amine], the IC50 was 1 to 5 µM. For `COc1ccc(-n2cnc3cnc(Nc4cnn(-c5ccccc5)c4)nc32)cc1` [Compound A20, [9-(4-methoxy-phenyl)-9H-purin-2-yl]-(1-phenyl-1H-pyrazol-4-yl)-amine], the IC50 was 5 to 10 µM. Work on `Cn1cc(Nc2ncc3ncn(-c4ccc(-c5cnn(C)c5)cc4)c3n2)cn1` [Compound A21, (1-methyl-1H-pyrazol-4-yl)-{9-[4-(1-methyl-1H-pyrazol-4-yl)-phenyl]-9H-purin-2-yl}-amine] yielded an IC50 of less than 1 µM. With `CCn1cc(Nc2ncc3ncn(-c4ccc(C(=O)NCC(O)CO)cc4)c3n2)cn1` (stereo not shown) [Compound A22, N-(2,3-dihydroxy-propyl)-4-[2-(1-ethyl-1H-pyrazol-4-ylamino)-purin-9-yl]-benzamide] the IC50 was 1 to 5 µM. In the case of `Cn1cc(Nc2ncc3ncn(-c4ccc(-c5cnn(C6CCNCC6)c5)cc4)c3n2)cn1` [Compound A23, (1-methyl-1H-pyrazol-4-yl)-{9-[4-(1-piperidin-4-yl-1H-pyrazol-4-yl)-phenyl]-9H-purin-2-yl}-amine], the IC50 is reported as less than 1 µM. With `Cn1cc(Nc2ncc3nc(N)n(-c4ccc(-c5cnn(C)c5)cc4)c3n2)cn1` [Compound A24, N2-(1-methyl-1H-pyrazol-4-yl)-9-[4-(1-methyl-1H-pyrazol-4-yl)-phenyl]-9H-purine-2,8-diamine] the IC50 was 1 to 5 µM. In the case of `CCn1cc(Nc2ncc3nc(N)n(-c4ccc(C(=O)NCCO)cc4)c3n2)cn1` [Compound A25, 4-[8-amino-2-(1-ethyl-1H-pyrazol-4-ylamino)-purin-9-yl]-N-(2-hydroxy-ethyl)-benzamide], the IC50 is reported as 5 to 10 µM. For `Cn1cc(Nc2ncc3nc(N)n(-c4ccc(-c5cnn(C6CCNCC6)c5)cc4)c3n2)cn1` [Compound A26, N2-(1-methyl-1H-pyrazol-4-yl)-9-[4-(1-piperidin-4-yl-1H-pyrazol-4-yl)-phenyl]-9H-purine-2,8-diamine], the IC50 was 1 to 5 µM. `NC(=O)[C@@H]1CC[C@@H](Nc2ncc3ncn(-c4ccc(I)c(F)c4)c3n2)C1` [Compound A31, (1R,3R)-3-[9-(3-fluoro-4-iodo-phenyl)-9H-purin-2-ylamino]-cyclopentanecarboxylic acid amide] showed an IC50 of 1 to 5 µM. With `CCOc1ccc(-n2cnc3cnc(N[C@@H]4CC[C@@H](C(N)=O)C4)nc32)cc1` [Compound A32, (1R,3R)-3-[9-(4-ethoxy-phenyl)-9H-purin-2-ylamino]-cyclopentanecarboxylic acid amide] the IC50 was 1 to 5 µM. Compound `NC(=O)[C@@H]1CC[C@@H](Nc2ncc3ncn(-c4ccc(I)cc4)c3n2)C1` [Compound A33, (1R,3R)-3-[9-(4-iodo-phenyl)-9H-purin-2-ylamino]-cyclopentanecarboxylic acid amide] has an IC50 of 1 to 5 µM. `COCCOc1ccc(-n2cnc3cnc(N[C@@H]4CC[C@@H](C(N)=O)C4)nc32)cc1` [Compound A34, (1R,3R)-3-{9-[4-(2-methoxy-ethoxy)-phenyl]-9H-purin-2-ylamino}-cyclopentanecarboxylic acid amide] was tested, and the IC50 was 1 to 5 µM. For `COCCn1cc(-c2ccc(-n3cnc4cnc(N[C@@H]5CC[C@@H](C(N)=O)C5)nc43)cc2F)cn1` [Compound A35, (1R,3R)-3-(9-{3-fluoro-4-[1-(2-methoxy-ethyl)-1H-pyrazol-4-yl]-phenyl}-9H-purin-2-ylamino)-cyclopentanecarboxylic acid amide], the IC50 was less than 1 µM. With `CCOCCn1cc(-c2ccc(-n3cnc4cnc(N[C@@H]5CC[C@@H](C(N)=O)C5)nc43)cc2)cn1` [Compound A36, (1R,3R)-3-(9-{4-[1-(2-ethoxy-ethyl)-1H-pyrazol-4-yl]-phenyl}-9H-purin-2-ylamino)-cyclopentanecarboxylic acid amide] the IC50 was less than 1 µM. Work on `Cc1ccc2cc(-n3cnc4cnc(N[C@@H]5CC[C@@H](C(N)=O)C5)nc43)ccc2n1` [Compound A37, (1R,3R)-3-[9-(2-methyl-quinolin-6-yl)-9H-purin-2-ylamino]-cyclopentanecarboxylic acid amide] yielded an IC50 of less than 1 µM. With `COCCn1cc(-c2ccc(-n3cnc4cnc(N[C@@H]5CCNC5)nc43)cc2)cn1` [Compound A38, (9-{4-[1-(2-methoxy-ethyl)-1H-pyrazol-4-yl]-phenyl}-9H-purin-2-yl)-(R)-pyrrolidin-3-yl-amine] the IC50 was 5 to 10 µM. `COCCn1cc(-c2ccc(-n3cnc4cnc(N[C@@H]5CCN(C(=O)CCN6CCN(C)CC6)C5)nc43)cc2)cn1` [Compound A39, 1-[(R)-3-(9-{4-[1-(2-methoxy-ethyl)-1H-pyrazol-4-yl]-phenyl}-9H-purin-2-ylamino)-pyrrolidin-1-yl]-3-(4-methyl-piperazin-1-yl)-propan-1-one] was tested, and the IC50 was 1 to 5 µM.

From patent publication US9617266B2, “Imidazopyrimidine derivatives” (Merck Patent GmbH, priority 2013, dated 2017)
